System: adjuvant arthritis
Test: Test of action on adjuvant arthritis (therapy)
Format: in vivo, Lewis strain rats
Conditions: Rattus norvegicus, 96 h; oral, 1 mg/kg once a day for 4 days, in 5% gum arabic; Lewis rats with fully developed adjuvant arthritis; foot volume on day after final administration; read-out: Edema inhibition ratio (%)

Q: For `CCCCC(=O)Nc1cc(NS(C)(=O)=O)c(OC2CCCCC2)cc1[N+](=O)[O-]` [Test drug 1, N-[2-cyclohexyloxy-4-nitro-5-(n-valerylamino)phenyl]methanesulfonamide], which inhibition in vivo at 1 mg/kg is on record?
A: 46.5%

Q: How did the inhibition in vivo at 1 mg/kg turn out when `CS(=O)(=O)Nc1cc(NC=O)c([N+](=O)[O-])cc1OC1CCCCC1` [Test drug 2] was run?
A: 43.1%

Q: For `CC(=O)Nc1cc(NS(C)(=O)=O)c(OC2CCCCC2)cc1[N+](=O)[O-]` [Test drug 3], which inhibition in vivo at 1 mg/kg is on record?
A: 45.7%

Q: `CCC(=O)Nc1cc(NS(C)(=O)=O)c(OC2CCCCC2)cc1[N+](=O)[O-]` [Test drug 4] was tested. Which inhibition in vivo at 1 mg/kg did it give?
A: 48.5%

Q: How did the inhibition in vivo at 1 mg/kg turn out when `CCCC(=O)Nc1cc(NS(C)(=O)=O)c(OC2CCCCC2)cc1[N+](=O)[O-]` [Test drug 5, N-[5-(n-butyrylamino)-2-cyclohexyloxy-4-nitrophenyl)methanesulfonamide] was run?
A: 44.2%

Q: For `CCOC(=O)C(=O)Nc1cc(NS(C)(=O)=O)c(OC2CCCCC2)cc1[N+](=O)[O-]` [Test drug 6], which inhibition in vivo at 1 mg/kg is on record?
A: 50.9%

Q: `CCCOC(=O)C(=O)Nc1cc(NS(C)(=O)=O)c(OC2CCCCC2)cc1[N+](=O)[O-]` [Test drug 7] was tested. Which inhibition in vivo at 1 mg/kg did it give?
A: 37.2%

Q: `COC(=O)CC(=O)Nc1cc(NS(C)(=O)=O)c(OC2CCCCC2)cc1[N+](=O)[O-]` [Test drug 8] was tested. Which inhibition in vivo at 1 mg/kg did it give?
A: 38%

Q: `CCOC(=O)CCC(=O)Nc1cc(NS(C)(=O)=O)c(OC2CCCCC2)cc1[N+](=O)[O-]` [Test drug 9] was tested. Which inhibition in vivo at 1 mg/kg did it give?
A: 52.8%

Q: With `CS(=O)(=O)Nc1cc(N)c([N+](=O)[O-])cc1OC1CCCCC1` [Test drug 10, N-(5-amino-2-cyclohexyloxy-4-nitrophenyl)methanesulfonamide] as the compound, how does the inhibition in vivo at 1 mg/kg read?
A: 46.7%

Q: For `CS(=O)(=O)Nc1ccc([N+](=O)[O-])cc1OC1CCCCC1` [compound 11], which inhibition in vivo at 1 mg/kg is on record?
A: 19.7%

— patent US5374764A, “5-aminosulfonanilide compounds” (Taisho Pharmaceutical Co., Ltd., priority 1991, dated 1994)
